“And” between values parts separate entries of the source, which are not always exact repeats. Equal entries are not always repeated.
Columns and labels:
[1] = tested on: splenocytes; experiment: ALDEFLUOR activity in splenocytes of treated animals; assay type: in vivo, mice; conditions: animals being treated with 673A
[2] = tested on: primary cells from HGSC patients; experiment: Seahorse mitochondrial flux analysis; assay type: cell-based, human; conditions: 12.5 μM
[3] = tested on: primary patient cells (HGS); experiment: Tumor sphere growth assay; assay type: cell-based, human; conditions: single 12.5 μM dose
[4] = tested on: Ovsaho, HEY-1, and A2780 cell-line xenografts; experiment: Cell-line xenografts, single agent
[5] = tested on: PEO1 cells; experiment: ALDEFLUOR assay of ALDH activity in live PEO1 cells; assay type: cell-based
[6] = tested on: platinum-resistant PDX; experiment: Chemotherapy-resistant patient-derived xenograft; assay type: in vivo, mice; conditions: 673A added to carboplatin or cisplatin
[7] = tested on: FACS-sorted ALDH+ SKOv3 cells; experiment: Intraperitoneal ALDH+ SKOv3 survival study
[8] = tested on: bulk cells, multiple cell lines; experiment: Bulk cell viability in multiple cell lines; assay type: cell-based
[9] = tested on: human mesenchymal stem cells; experiment: Toxicity to normal cells; assay type: cell-based
[10] = tested on: OVCAR5-ALDH1A3-knockout (KO) cells; experiment: 673 dose-response in CRISPR knockout cells; assay type: cell-based
[11] = tested on: other ALDH family members; experiment: ALDH enzymatic activity, in vitro inhibition; assay type: biochemical; conditions: in vitro enzymatic assay
[12] = tested on: endometrioid ovarian cancer
[13] = tested on: CD133+ cells; experiment: Intracellular calcium level; assay type: cell-based
[14] = tested on: chemotherapy-resistant SKOv3 cells; experiment: Cellular recovery assay with cisplatin; assay type: cell-based; conditions: for cellular recovery: SKOv3, 9 days after treatment, single agent
[15] = molecular target: ALDH1A1 (Homo sapiens, UniProt P00352); experiment: ALDH enzymatic activity, in vitro inhibition; assay type: biochemical; conditions: IC50 ALDH1A1, in vitro enzymatic assay, propionaldehyde/NAD+
[16] = tested on: SKOv3 cells; assay type: in vivo, mice
[17] = Hematologic, renal, and liver function tests; assay type: in vivo; conditions: liver function tests, 673A added to cisplatin
[18] = molecular target: ALDH2 (Homo sapiens, UniProt P05091); experiment: biochemical
[19] = tested on: CaoV3 cells; experiment: Minimal residual disease model, CaoV3 subcutaneous; conditions: 3 weeks treatment, 6 months follow-up
[20] = tested on: CD133+ cells (A2780, OVSAHO, OvCAR5); experiment: Depletion of CD133+ CSC by FACS 72 h after treatment; assay type: cell-based
[21] = tested on: FACS-sorted CD133+ (A2780) cells; experiment: Annexin-V/PI FACS analysis of apoptosis; assay type: cell-based; conditions: 12.5 μM
[22] = molecular target: ALDH1A1 Cys303 in SKOv3 tumors (Homo sapiens, UniProt P00352); experiment: isoTOP-ABPP of ALDH1A in tumors in vivo; set-up: species or system mice; conditions: 673A-treated tumors
[23] = molecular target: ALDH1A2 (Homo sapiens, UniProt O94788); experiment: ALDH enzymatic activity, in vitro inhibition; assay type: biochemical; conditions: IC50 ALDH1A2, in vitro enzymatic assay, propionaldehyde/NAD+
[24] = tested on: non-malignant MCF10A cells; experiment: Toxicity to normal cells; assay type: cell-based
[25] = molecular target: ALDH1A3 (Homo sapiens, UniProt P47895); experiment: ALDH enzymatic activity, in vitro inhibition; assay type: biochemical; conditions: IC50 ALDH1A3, in vitro enzymatic assay, propionaldehyde/NAD+
[26] = tested on: FACS-isolated ALDH+CD133+ A2780 cells; experiment: Single-cell microfluidic culture cell death; assay type: cell-based; conditions: microfluidic chips, 72 h

Sequence of ALDH1A3 (P47895 whole entry): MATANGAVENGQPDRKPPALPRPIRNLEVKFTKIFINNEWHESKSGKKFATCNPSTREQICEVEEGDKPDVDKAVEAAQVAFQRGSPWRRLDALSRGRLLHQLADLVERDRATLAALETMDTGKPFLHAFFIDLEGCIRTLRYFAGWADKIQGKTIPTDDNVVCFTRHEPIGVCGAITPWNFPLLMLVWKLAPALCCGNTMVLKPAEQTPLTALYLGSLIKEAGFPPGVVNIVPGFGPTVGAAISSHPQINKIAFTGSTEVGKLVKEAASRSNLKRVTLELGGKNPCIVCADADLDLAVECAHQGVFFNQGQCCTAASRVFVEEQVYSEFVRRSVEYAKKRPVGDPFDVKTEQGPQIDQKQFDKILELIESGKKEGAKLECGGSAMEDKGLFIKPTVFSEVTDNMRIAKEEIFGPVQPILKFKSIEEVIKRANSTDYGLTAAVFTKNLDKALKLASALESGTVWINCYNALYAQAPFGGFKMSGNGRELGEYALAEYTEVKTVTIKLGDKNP
Sequence of ALDH2 (P05091 18-517): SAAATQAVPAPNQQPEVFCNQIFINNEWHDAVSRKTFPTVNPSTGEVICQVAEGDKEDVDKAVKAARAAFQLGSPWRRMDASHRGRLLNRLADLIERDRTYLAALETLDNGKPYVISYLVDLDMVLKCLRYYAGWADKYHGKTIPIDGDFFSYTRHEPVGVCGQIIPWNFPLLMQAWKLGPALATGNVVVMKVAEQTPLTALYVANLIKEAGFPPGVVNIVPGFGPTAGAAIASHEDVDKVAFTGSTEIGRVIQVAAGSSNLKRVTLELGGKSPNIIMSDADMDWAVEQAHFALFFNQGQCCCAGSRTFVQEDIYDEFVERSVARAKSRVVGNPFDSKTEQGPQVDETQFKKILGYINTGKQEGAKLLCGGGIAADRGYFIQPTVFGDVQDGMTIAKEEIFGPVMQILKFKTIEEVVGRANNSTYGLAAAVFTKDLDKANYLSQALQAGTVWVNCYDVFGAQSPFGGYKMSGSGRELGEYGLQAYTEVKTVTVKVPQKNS
Sequence of ALDH1A1 (P00352 whole entry): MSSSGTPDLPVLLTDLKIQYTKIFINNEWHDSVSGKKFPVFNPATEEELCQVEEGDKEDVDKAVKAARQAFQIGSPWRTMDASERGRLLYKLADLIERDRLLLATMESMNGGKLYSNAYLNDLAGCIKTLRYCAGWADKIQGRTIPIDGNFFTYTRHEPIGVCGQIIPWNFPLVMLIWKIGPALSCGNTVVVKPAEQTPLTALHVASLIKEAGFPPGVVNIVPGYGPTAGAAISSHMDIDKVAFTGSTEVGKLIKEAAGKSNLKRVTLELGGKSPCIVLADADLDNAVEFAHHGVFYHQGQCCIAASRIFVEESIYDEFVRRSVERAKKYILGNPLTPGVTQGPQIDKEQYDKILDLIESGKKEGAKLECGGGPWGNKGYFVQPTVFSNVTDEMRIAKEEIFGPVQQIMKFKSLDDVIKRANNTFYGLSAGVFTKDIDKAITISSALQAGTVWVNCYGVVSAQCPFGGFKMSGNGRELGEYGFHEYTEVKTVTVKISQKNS
Sequence of ALDH1A2 (O94788 whole entry): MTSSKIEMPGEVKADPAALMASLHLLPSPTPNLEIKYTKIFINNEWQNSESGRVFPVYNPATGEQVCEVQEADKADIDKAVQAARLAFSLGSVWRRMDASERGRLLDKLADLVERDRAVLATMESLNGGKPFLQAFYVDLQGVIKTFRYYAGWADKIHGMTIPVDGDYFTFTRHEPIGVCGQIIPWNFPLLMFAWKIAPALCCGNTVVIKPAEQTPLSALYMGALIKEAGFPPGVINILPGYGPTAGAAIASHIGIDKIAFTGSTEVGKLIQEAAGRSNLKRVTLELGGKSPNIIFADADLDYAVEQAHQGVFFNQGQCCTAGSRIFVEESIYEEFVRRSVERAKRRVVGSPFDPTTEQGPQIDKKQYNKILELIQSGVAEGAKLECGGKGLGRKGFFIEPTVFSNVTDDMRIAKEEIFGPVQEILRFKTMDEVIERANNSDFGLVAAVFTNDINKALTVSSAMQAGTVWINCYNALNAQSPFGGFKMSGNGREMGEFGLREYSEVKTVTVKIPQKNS
Sequence of ALDH1A1 Cys303 in SKOv3 tumors (P00352 whole entry): as the sequence (P00352 whole entry) above

O=Cc1ccc(N2Cc3ccccc3C2)cc1 [673A, 4-(1,3-dihydro-2H-isoindol-2-yl)benzaldehyde]
decrease of ALDEFLUOR activity in splenocytes [1]: 3 fold | OXPHOS capacity [2]: decreased OXPHOS capacity | average reduction in tumor sphere formation [3]: 19 fold | reduction of tumor burden ([4]; 20 mg/kg daily for 21 days): 40%–60% | reduction of tumor growth as a single agent ([4]; in vivo, single agent): > 50% | inhibition at 25 µM ([5]; Homo sapiens, PEO1, 6 h, read-out: inhibition of ALDEFLUOR activity): 98% | time to inhibition of PEO1 ALDEFLUOR activity ([5]; PEO1 cells, persisted after 6 h): ≤ 1 h | reduction of final tumor weight [6]: more than 2 fold | mice disease free at 6 months ([7]; cisplatin and 673A): 62% | TD50 bulk cell viability [8]: 40 to 80 µM | toxicity to human mesenchymal stem cells [9]: little or no toxicity | increase in TD50 versus control cells [10]: ~ 10 × | inhibition of other ALDH family members tested [11]: minimal or no inhibition | mice tumor free at conclusion of experiment ([12]; carboplatin weekly and 673A 20 mg/kg daily for 7 weeks): 27% | increase in intracellular Ca ([13]; 16 h after treatment): 1.5 fold | increase in intracellular Ca ([13]; 24 h after treatment): 6 fold | reduction in cell number ([14]; SKOv3, 9 days after combined treatment of cisplatin and 673A): 30 fold | cellular recovery [14]: 100% | IC50 [15]: 246 nM and < 350 nM | tumor initiation capacity ([16]; 673A combined with cisplatin therapy): eliminated tumor initiation capacity | reduction in tumor growth versus no treatment or cisplatin therapy ([16]; SKOv3 treated in vitro 12.5 μM, 48 h, 5,000 live cells injected): 4–5 fold | reduction of tumor initiation ([16]; limiting dilution assay, 673A alone): ~ 50% | toxicity with addition to cisplatin [17]: no additional toxicity | IC50 [18]: 14000 nM and ~15000 nM | mice that developed tumors ([19]; cisplatin and 673A): 40% | mice that developed tumors ([19]; single agent): 50% | depletion of CD133+ CSCs / toxicity [20]: highly effective at preferentially depleting CD133^+ CSC | induction of annexin-V [21]: no significant early or late induction of annexin-V | engagement of ALDH1A1 catalytic residue [22]: clear protection of the catalytic residue Cys303 in ALDH1A1 | IC50 [23]: 230 nM and < 350 nM | toxicity to non-malignant MCF10A cells [24]: little or no toxicity | IC50 [25]: 348 nM and < 350 nM | treated cells that died [26]: > 90%

CCN(CC)c1ccc(C=O)cc1 [DEAB, N,N-diethylaminobenzaldehyde, reference compound]
inhibition of ALDEFLUOR activity ([5]; PEO1 cells, 6 h, equimolar doses (25 μM)): 40% | depletion of CD133+ CSCs / toxicity [20]: preferential depletion of CD133^+ cells

CCN(CC)C(=S)SSC(=S)N(CC)CC [DSF, disulfiram, reference compound]
effect on cancer growth ([16]; SKOv3 treated in vitro, 5,000 live cells injected): no effect on cancer growth

N.N.O=C([O-])C1(C(=O)[O-])CCC1.[Pt+2] [carboplatin, reference compound]
mice tumor free after therapy ([12]; carboplatin alone, 25 mg/kg weekly): 16%

N.N.[Cl][Pt][Cl] [cisplatin, reference compound]
mice that died ([7]; cisplatin only): 100% | cellular recovery [14]: 100% | mice that developed tumors ([19]; single agent): Ninety

O=c1c(-c2ccc(O)cc2)coc2cc(O[C@@H]3O[C@H](CO)[C@@H](O)[C@H](O)[C@H]3O)ccc12 [daidzin, reference compound]
therapeutic benefit of addition to cisplatin ([14]; SKOv3, added to cisplatin): No therapeutic benefit | depletion of CD133+ CSCs / toxicity [20]: no significant toxicity

From paper PMC7061440 (Cell reports, 2019)
